The structures appear in SMILES notation. Read-outs that look alike come from different tables or passages of the source.

The subject of data set [1] is MUTZ-3 cells.
Data set [2] deals with human skin. Particulars: cited from earlier work.
Data set [3] deals with MUTZ-3 cells. Particulars: for SVM DV: human.
Description: (§1) The SVM model had been developed for binary classifications (sensitizer versus non-sensitizer).
Data set [4] has as its system MUTZ-3 cells. This is another data set of the same source.
The conditions of data set [5]: cited from earlier work; for binary class: Table 4.
Data set [6] relates to MUTZ-3 cells. Put plainly: GARD random forest model for prediction of CLP categories (52 transcripts, Example A). The note with it: for predicted CLP: Suppl. Table 1, separate replicates in the test set; for GARD predicted CLP: Table 6, independent test set, majority voting across replicates.
Data set [7] relates to MUTZ-3 cells. In words: GARD binary classification (SVM on GARD prediction signature, 200 transcripts). The note with it: Table 1; sensitizer if median calibrated SVM DV of replicates > 0.
Description: as §1
In data set [8] the test system is MUTZ-3 cells. Put plainly: Cytotoxicity / viability by flow cytometry (propidium iodide). The note with it: Table 1, 24 hours exposure. On the technique in general: Flow cytometry measures light scatter and fluorescence of single cells or particles in a stream.

As to `CC=Cc1ccc(OC)cc1` [anethole], in data set [1] (human, 24 h), the “GARD predicted CLP” value is 1B and the “predicted CLP” value is 1B. In data set [2], the HP is recorded as 5 and the “Human potency [41]” value is listed as 5.
As to `Nc1ccccc1` [aniline], the “binary classification according to the established GARD model” value in data set [3] was “misclassified”. Besides, the cytotox result in data set [4] is on record as “no”. In data set [2], the HP is 4.
On to `O=C(O)c1ccccc1` [benzoic acid], for which the cytotox result in data set [4] is “no”. In data set [5], the binary class entry is “non-sens”. In data set [6], the “predicted CLP” value was “no cat” and the “GARD predicted CLP” value was “no cat”.
As for `CC(C)(c1ccc(OCC2CO2)cc1)c1ccc(OCC2CO2)cc1` (stereo not shown) [bisphenol A-diglycidyl ether], the cytotox result in data set [4] was “yes”. In data set [2], the HP is 3 and the “Human potency [41]” value is listed as 3. Besides, the GARD binary prediction entry in data set [7] is listed as “S”. Moreover, in data set [6], the “predicted CLP” value was 1A and the “GARD predicted CLP” value was 1A.
As for `CCCCOCC1CO1` (stereo not shown) [butyl glycidyl ether], the “binary classification according to the established GARD model” value in data set [3] is given as “misclassified”. In addition, in data set [1] (human, 24 h), the “CLP category predicted by the random forest model” value is 1A and the “GARD predicted CLP” value is 1A. Moreover, the cytotox entry in data set [4] is on record as “yes”. In data set [2], the HP is on record as 3, the “Human potency [41]” value was 3 and the human potency category is 3.
Turning to `CCOc1cc(C=O)ccc1O` [ethyl vanillin], in data set [1], the “GARD predicted CLP” value is “no cat” and the “predicted CLP” value is “no cat”. Further, the “predicted CLP” value in data set [1] (human, 24 h) is 1B.
For the compound `NC[C@H]1O[C@H](O[C@H]2[C@H](O)[C@@H](O[C@H]3O[C@H](CO)[C@@H](O)[C@H](N)[C@H]3O)[C@H](N)C[C@@H]2N)[C@H](O)[C@@H](O)[C@@H]1O` [kanamycin A], the cytotox result in data set [4] is listed as “no”. In addition, in data set [5], the binary class entry is “non-sens”.
Regarding `CC(C=O)Cc1ccc(C(C)(C)C)cc1` (stereo not shown) [lilial], the GARD binary prediction result in data set [3] is “S”. Moreover, the cytotox result in data set [4] is “yes”. In data set [2], the HP is given as 4. Besides, the “binary class (HP*)” value in data set [5] (Table 1, based on [41] where available, HP 1-4=S, 5-6=NS, otherwise according to CLP) was “S”. The binary class entry in data set [5] is recorded as “sens”.
As for `O=C1C=CC(=O)C=C1` [p-benzoquinone], the GARD binary prediction entry in data set [3] is reported as “S”. Also, the cytotox result in data set [8] is recorded as “yes”. In data set [6], the “predicted CLP” value is reported as 1A and the “GARD predicted CLP” value is reported as 1A.
Consider `Oc1ccccc1` [phenol], for which, in data set [3], the “SVM DV” value is given as -1,08. In data set [2], the HP was 6 and the Human potency is reported as 6.
Turning to `c1ccncc1` [pyridine], the cytotox result in data set [4] is recorded as “no”. Further, the HP in data set [2] is 5.
For `CCCCCCCCCCCCOS(=O)(=O)[O-].[Na+]` [sodium dodecyl sulfate], the “SVM DV” value in data set [3] was -1,52. Further, in data set [2], the HP was 6 and the Human potency was 6.

The values are drawn from EP3417074B1, “ANALYTICAL METHODS AND ARRAYS FOR USE IN THE SAME” (SenzaGen AB, priority 2016, dated 2017).
